Measurements reported in the CheMixHub viscosity set.

Test: xn = mol fraction of the nth substance listed

CCCCCOC(C)=O + CCc1ccccc1
Details	viscosity [mPa·s]
298.15 K, 101 kPa, x2 = 0.089	0.7697

C1CCC2=[NH+]CCCN2CC1.c1nc[n-]n1 + CCO
303.15 K, 100 kPa
Details	viscosity [mPa·s]
x1 = 0.1001	4.38
x1 = 0.2	9.22
x1 = 0.2999	22.01
x1 = 0.4003	47.32
x1 = 0.4989	90.79
x1 = 0.6002	174.5
x1 = 0.7008	325.1
x1 = 0.7993	472.2
x1 = 0.9002	830.6

CCCCCC + CCCCO
viscosity [mPa·s]
Details	298.15 K	313.15 K	318.15 K
101 kPa, x2 = 0.08	0.33	–	0.266
101 kPa, x2 = 0.1284	0.345	–	0.284
101 kPa, x2 = 0.1441	0.35	–	0.29
101 kPa, x2 = 0.2	0.385	–	0.311
101 kPa, x2 = 0.28	0.415	–	0.33
101.3 kPa, x2 = 0.0999	0.3222	0.2741	–
101.3 kPa, x2 = 0.1997	0.3628	0.306	–
101.3 kPa, x2 = 0.299	0.4227	0.3503	–
101.3 kPa, x2 = 0.4007	0.5201	0.4169	–
101.3 kPa, x2 = 0.499	0.642	0.5063	–
101.3 kPa, x2 = 0.5988	0.8264	0.6311	–
101.3 kPa, x2 = 0.6996	1.082	0.8166	–
101.3 kPa, x2 = 0.8	1.421	1.041	–
101.3 kPa, x2 = 0.8994	1.888	1.33	–
101.33 kPa, x1 = 0.0971	1.848	–	–
101.33 kPa, x1 = 0.1707	1.496	–	–
101.33 kPa, x1 = 0.2625	1.169	–	–
101.33 kPa, x1 = 0.3521	0.909	–	–
101.33 kPa, x1 = 0.4142	0.778	–	–
101.33 kPa, x1 = 0.562	0.539	–	–
101.33 kPa, x1 = 0.6624	0.44	–	–
101.33 kPa, x1 = 0.8147	0.348	–	–
101.33 kPa, x1 = 0.9267	0.306	–	–

C=CC(=O)OC + CCCCC(C)O
viscosity [mPa·s], 101 kPa
Details	298.15 K	308.15 K
x1 = 0.05507	3.631	2.614
x1 = 0.1	3.287	2.387
x1 = 0.1554	2.908	2.136
x1 = 0.1998	2.636	1.953
x1 = 0.2554	2.331	1.746
x1 = 0.2999	2.112	1.596
x1 = 0.3554	1.868	1.428
x1 = 0.3999	1.693	1.305
x1 = 0.4555	1.497	1.167
x1 = 0.4999	1.357	1.067
x1 = 0.5554	1.2	0.954
x1 = 0.5999	1.088	0.872
x1 = 0.6551	0.963	0.781
x1 = 0.7	0.872	0.713
x1 = 0.755	0.772	0.638
x1 = 0.7998	0.699	0.583
x1 = 0.8555	0.618	0.522
x1 = 0.8999	0.56	0.477
x1 = 0.9555	0.495	0.426
